Format in all cases: cell-based, human
Series [1] deals with normal prostate cells CRL11611. In words: MTT cell viability assay, normal prostate CRL11611 cells. The conditions noted are these: normal prostate CRL11611 (p53+, AR+), 24-72 hr; paclitaxel 1 nM. An excerpt:
FIG. 4A-4D: Effect of peptides on prostate cancer cell lines with differences in p53 and AR expression status. […] Control (PBS)-treated cells were considered to have 100% viability. Mean±SE (N=3).
(§1) Cell lines and culture: Human cancer and noncancer (immortalized and nonimmortalized) cell lines were obtained from the American Type Culture Collection [prostate cancer (PC3, DU145 and LNCaP), normal prostate (CRL11611), breast cancer (MCF-7), ovarian cancer (SK-OV3 adenocarcinoma), lung cancer (A549)]. MDD2 breast cancer cells (p53 dominant-negative) were provided courtesy of Dr Andrei V. Gudkov, Roswell Park Cancer Institute. 20 All cell lines were cultured in MEM-E (Invitrogen) supplemented with 10% heat-inactivated fetal bovine serum (Atlanta Biological, Inc.), 100 units/mL penicillin, and 100 μg/mL streptomycin at 37° C. in 5% CO2.
(§2) Cytotoxicity assay: The MTT assay was performed as we previously described (Cha et al., Cancer Research 2020, 80: 1615-1623).
(Tetrazolium assays rely on reduction of a dye to a coloured formazan, in cell work by metabolically active cells.)

In series [2] the test system is PC3 prostate cancer cells. In words: MTT cell viability assay, PC3 prostate cancer cells. Here is the method:
as §1

Another series has as its system MDD2 breast cancer cells. Description: MTT cell viability assay, MDD2 breast cancer cells. The conditions noted are these: MDD2 (p53 dominant negative), 0.1-100 μM, 24 hr. Here is the method:
as §1, §2

The subject of series [3] is DU145 prostate cancer cells. In words: MTT cell viability assay, DU145 prostate cancer cells.
Description: (§3) Cell viability was detected by MTT assays, and the control (PBS-treated) cells were considered 100% viable. Mean±SE (N=3). *P<0.05, **P<0.01, ***P<0.001.
as §1

In series [4] the test system is MCF-7 breast cancer cells. In words: MTT cell viability assay, MCF-7 breast cancer cells. The settings on record: MCF-7, 5-100 μM, 24 hr.
Description: as §3, §1, §2

The test system of the next series is Mel-2 cells. In words: Aldolase A secretion and expression in Mel-2 cells treated with purified azurin. The conditions noted are these: Mel-2, purified azurin 100 nM, 10 μM, 1 mM, 30 min. The method, then: FIG. 18A-18G: Induction of aldolase A secretion by host cells in the presence of P. aeruginosa. 18A. Human host cells (cancer and normal) and P. aeruginosa were co-incubated for 30 min at a concentration of 500,000 human cells/ml with P. aeruginosa at OD=0.3. Aldolase secretion varied between the co-cultures with cancer and normal cells. […] 18B Correlation between the aldolase A and azurin levels in co-cultures of P. aeruginosa with cancer or normal cells. 18C Cancer cells (Mel-2 and MDA-MB-231) and P. aeruginosa (WT and azunull mutant) were co-incubated for 30 min at a concentration of 500,000 human cells/ml with P. aeruginosa at OD=0.3. Secretion of aldolase into the culture supernatant was assessed by western blot analysis. […]
Aldolase A gene expression in MDA-MB-231 (black bars) and Mel-2 (white bars) cells was determined by RT-PCR (22A). […] 22B: Intracellular levels of aldolase A were assessed by western blot analysis with an anti-aldolase A antibody. […]
Western blotting: After running the NuPAGE, proteins were transferred to PVDF membranes (BioRad Laboratories Inc, Hercules, CA) which were blocked in SuperBlock (T20 TBS buffer, Thermo Fisher) for one hour. […] The signal was detected using enhanced chemiluminescence (ECL, Thermo Fisher Scientific). Quantitative analysis of the bands was performed with a computer-assisted imaging densitometer (UN-SCAN-IT gel version 5.1). […]

Entries after “also recorded” stand apart in the source; their conditions may differ.

As for “LVN GGD DVA AAV NTA AQN NAD ALF VPPP (LVNGGDDVAAAVNTAAQNNADALFVPPP) [aurB]”, the “cytotoxic effect (MTT cell viability)” value is given as “not evident” in series [1]; “significantly induced dose-dependent cytotoxic effects; also recorded: more sensitive than the normal prostate cell line” in series [2] (PC3 (p53-null, AR−), 24-72 hr, paclitaxel 1 nM); “significantly induced dose-dependent cytotoxic effects; also recorded: more sensitive than the normal prostate cell line” in series [3] (DU145 (p53-mutant, AR−), 24-72 hr, paclitaxel 1 nM). Also, the “effect on p53-inactive cancer cells (MTT)” value is “dose-dependent” in series [2] (PC3 (p53-null), 0.1-100 μM, 24 hr) and “dose-dependent” with MDD2 breast cancer cells. The inhibition rate in series [2] (PC3, 100 μM for 72 hr) is around 50%; in series [3] (DU145, 100 μM for 72 hr), around 50%. Also, the “anti-proliferative effect (MTT cell viability)” value in series [3] (DU145, 5-100 μM, 24 hr) was “clear dose-dependent effects”; in series [4], “clear dose-dependent effects”.

For the substance “azurin: 14 kDa periplasmic copper protein of 128 amino acids from P. aeruginosa; purified recombinant”, in the series on Mel-2 cells, the “aldolase A gene expression and intracellular levels” value is “without increasing gene expression or intracellular levels of aldolase A”; the “aldolase A secretion into culture medium (western blot)” value is “secreted a considerable amount of human aldolase A”.

Source of the values: patent US20250179126A1, “A NOVEL PEPTIDE FROM A PHOTOSYNTHETIC BACERIUM DIRECTLY TARGETS MITOCHONDRIA TO TRIGGER APOPTOSIS IN ADVANCED PROSTATE CANCER CELLS” (priority 2022, published 2025).
